“Also recorded” adds a separate entry of the source.
Tests used:
'mutant atbg1' [1] = assay: Stomatal size of 'mutant atbg1' at night after ABA treatment; type: in vivo, Arabidopsis thaliana; conditions: 10 μM and 50 μM ABA at 23 o'clock, measured at 24 o'clock, n=200
Procedure: (§1) Particularly, the transgenic plant was cultured at 20° C. with 70% relative humidity under 16/8 hour-light/dark cycle and the stomatal sizes were measured at noon and midnight (n=150) (FIG. 13).
(§2) To investigate the effect of exogenous ABA on stomatal closure, the ‘mutant atbg1’ plant was treated with 10 μM and 50 μM of ABA at 23 o'clock and stomatal sizes were measured at 24 o'clock (FIG. 14). Control group was treated with 100 μM of NAME (L-nitroargininemethylester), known as […], during the time of stomatal disclosure, that is for 10 hours from 4 o'clock, and stomatal sizes were measured at midnight.

'mutant atbg1' [2] = assay: Leaf colour of 'mutant atbg1' after exogenous ABA; type: in vivo, Arabidopsis thaliana; conditions: exogenous ABA applied to one week cultivated 'mutant atbg1', 3 more days of culture
Description: Exogenous ABA was applied to one week cultivated ‘mutant atbg1’, followed by culture for 3 more days.

wild type = assay: Stomatal size of wild type at midnight after NAME treatment; type: in vivo, Arabidopsis thaliana; conditions: 100 μM NAME for 10 hours from 4 o'clock, measured at midnight
Procedure: as §1, §2

AtBG1:HA = assay: AtBG1 glycosylation in protoplasts, blotting with anti-HA antibody; type: cell-based, Arabidopsis thaliana; conditions: anti-HA blot
Description: To confirm the above result that AtBG1 localizes to ER, the present inventors examined AtBG1 glycosylation. Glycosylation of protein produces glycan and this glycan moiety of the protein localizing to the ER is sensitive to both endo-H and PNGase F, meaning the glycan moiety is easily digested by endo-H and PNGase F enzyme activities (Kuznetsov G. et al., J. Biol. Chem. 268: 2001, 1993). Tunicamycin is an inhibitor of the glycosylation.
Protein extract obtained from protoplasts of AtBG1:HA transfected plant and treated with endo-H and PNGase F (not treated with tunicamycin), protein extract obtained from protoplasts of tunicamycin treated Arabidopsis thaliana transformed with AtBG1 and protein extract obtained from protoplasts of tunicamycin-non-treated Arabidopsis thaliana transformed with AtBG1 were examined by blotting using anti-HA antibody.

[3] = ABA-GE hydrolysis by immunopurified AtBG1 proteins, ABA fraction by HPLC and ELISA; type: biochemical, Arabidopsis thaliana; conditions: 100 mM citrate buffer pH 5.5, 37° C., one and half hours

CC1=CC(=O)CC(C)(C)[C@@]1(O)/C=C/C(C)=C\C(=O)O [ABA, abscisic acid]
stomatal closure in the night ('mutant atbg1' [1]): induced stomatal closure in the night
leaf colour phenotype ('mutant atbg1' [2]): yellow leaf turned into normal green

COC(=O)[C@@H](N)CCCNC(=N)N[N+](=O)[O-] [NAME, L-nitroargininemethylester]
stomatal closure (wild type): defects in stomatal closure

Tunicamycin
size of AtBG1:HA versus tunicamycin-non-treated protoplasts (AtBG1:HA): smaller

B1: AtBG1:HA: HA (hemagglutinin) tagged wild type AtBG1, Arabidopsis thaliana β-glucosidase 1 (protein)
chain: QGPVCGAGLPDKFSRLNFPEGFIWGTATAAFQVEGAVNEGCRGPSMWDTFTKKFPHRCENHNADVAVDFYHRYKEDIQLMKDLNTDAFRLSIAWPRIFPHGRMSKGISKVGVQFYHDLIDELLKNNIIPLVTVFHWDTPQDLEDEYGGFLSGRIVQDFTEYANFTFHEYGHKVKHWITFNEPWVFSRAGYDNGKKAPGRCSPYIPGYGQHCQDGRSGYEAYQVSHNLLLSHAYAVDAFRNCKQCAGGKIGIAHSPAWFEPQDLEHVGGSIERVLDFILGWHLAPTTYGDYPQSMKDRVGHRLPKFTEAEKKLLKGSTDYVGMNYYTSVFAKEISPDPKSPSWTTDSLVDWDSKSVDGYKIGSKPFNGKLDVYSKGLRYLLKYIKDNYGDPEVIIAENGYGEDLGEKHNDVNFGTQDHNRKYYIQRHLLSMHDAICKDKVNVTGYFVWSLMDNFEWQDGYKARFGLYYIDFQNNLTRHQKVSGKWYSEFLKPQFPTSKLREEL
modifications: left off: small tags and cut ends
ABA generated from ABA-GE (HPLC peak / ELISA detection) [3]: novel peaks at the position for ABA; also recorded: hydrolyzes ABA-GE to form ABA
ABA generated from ABA-GE (HPLC peak / ELISA detection) ([3]; listed as wild type AtBG1 protein): high level of ABA

B2: AtBG1[E207Q]:HA: HA tagged AtBG1 with substitution mutation at position 207, an active site of β-glycosidase (protein, UniProt Q9SE50 27-528, looked up, variant E207Q)
Beta-D-glucopyranosyl …: QGPVCGAGLPDKFSRLNFPEGFIWGTATAAFQVEGAVNEGCRGPSMWDTFTKKFPHRCENHNADVAVDFYHRYKEDIQLMKDLNTDAFRLSIAWPRIFPHGRMSKGISKVGVQFYHDLIDELLKNNIIPLVTVFHWDTPQDLEDEYGGFLSGRIVQDFTEYANFTFHEYGHKVKHWITFNQPWVFSRAGYDNGKKAPGRCSPYIPGYGQHCQDGRSGYEAYQVSHNLLLSHAYAVDAFRNCKQCAGGKIGIAHSPAWFEPQDLEHVGGSIERVLDFILGWHLAPTTYGDYPQSMKDRVGHRLPKFTEAEKKLLKGSTDYVGMNYYTSVFAKEISPDPKSPSWTTDSLVDWDSKSVDGYKIGSKPFNGKLDVYSKGLRYLLKYIKDNYGDPEVIIAENGYGEDLGEKHNDVNFGTQDHNRKYYIQRHLLSMHDAICKDKVNVTGYFVWSLMDNFEWQDGYKARFGLYYIDFQNNLTRHQKVSGKWYSEFLKPQFPTSKLREEL
modifications: HA tag
ABA generated from ABA-GE (HPLC peak / ELISA detection) [3]: novel peaks at the position for ABA
amount of ABA released from ABA-GE, relative to that of the wild type ([3]; ABA peaks quantified by ELISA with anti-ABA antibody): 20%

Reference: patent US7795498B2, “Use of AtBG1 gene for the generation of transgenic plants with increased resistance to various abiotic stress” (Postech Foundation, priority 2004, dated 2010)
